“And” between values parts separate entries of the source, which are not always exact repeats. Identical values can stand only once. Some results are limits rather than exact numbers.

In the assay the target is T1, catalytic domain of human Bub1 (amino acids 704-1085) (Homo sapiens, UniProt O43683).
T1 construct: catalytic domain of human Bub1 (amino acids 704-1085); His6 (N); made in house; host or cells: insect cells (Hi5)
T1 sequence (O43683 704-1085): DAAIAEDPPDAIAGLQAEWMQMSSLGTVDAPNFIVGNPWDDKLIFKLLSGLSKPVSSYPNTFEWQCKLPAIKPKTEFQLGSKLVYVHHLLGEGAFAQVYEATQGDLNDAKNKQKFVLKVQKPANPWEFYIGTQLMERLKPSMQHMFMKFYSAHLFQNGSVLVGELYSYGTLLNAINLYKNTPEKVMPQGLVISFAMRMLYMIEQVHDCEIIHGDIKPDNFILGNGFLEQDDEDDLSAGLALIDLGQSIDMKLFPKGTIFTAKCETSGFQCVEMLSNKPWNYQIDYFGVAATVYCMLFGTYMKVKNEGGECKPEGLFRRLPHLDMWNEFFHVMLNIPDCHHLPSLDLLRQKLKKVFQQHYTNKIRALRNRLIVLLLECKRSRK
Put plainly: Bub1 kinase assay (TR-FRET). The assay is classed as biochemical. The following applies: 10 μM ATP, avg, read-out: Bub1 avg (IC50 [mol/l]). The method in brief: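 Readout is the 665/620 nm TR-FRET ratio from anti-phosphoserine antibody, Eu-labelled anti-mouse IgG and streptavidin-XL665, scaled between no-enzyme and uninhibited controls. Reaction: 1 μM biotinylated peptide, 10 μM ATP, 60 min, 22 °C, after 15 min compound preincubation with His6-Bub1 (704-1085, insect-expressed, ~200 ng/ml).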
For `Cc1nsc(Nc2cnc(C(F)(F)F)cn2)c1C(=O)Nc1ccc(F)c(OC2CCN(CC(F)(F)F)CC2)c1` [Example 264, N-(4-fluoro-3-{[1-(2,2,2-trifluoroethyl)piperidin-4-yl]oxy}phenyl)-3-methyl-5-{[5-(trifluoromethyl)pyrazin-2-yl]amino}-1,2-thiazole-4-carboxamide], the IC50 was above 20 µM.

Take `Cc1nsc(Nc2cnc(C(F)(F)F)cn2)c1C(=O)Nc1ccc(F)c(OC2CCN(CC(F)F)CC2)c1` [Example 265, N-(3-{[1-(2,2-difluoroethyl)piperidin-4-yl]oxy}-4-fluorophenyl)-3-methyl-5-{[5-(trifluoromethyl)pyrazin-2-yl]amino}-1,2-thiazole-4-carboxamide]: the IC50 is above 20 µM.

With `Cc1nsc(Nc2cnc(C(F)(F)F)cn2)c1C(=O)Nc1ccc(F)c(OC2CCN(CCF)CC2)c1` [Example 266, N-(4-fluoro-3-{[1-(2-fluoroethyl)piperidin-4-yl]oxy}phenyl)-3-methyl-5-{[5-(trifluoromethyl)pyrazin-2-yl]amino}-1,2-thiazole-4-carboxamide], the IC50 is above 20 µM.

Take `Cc1nsc(Nc2cncc(C(F)(F)F)n2)c1C(=O)Nc1ccc(F)c(OC2CCN(CC(F)(F)F)CC2)c1` [Example 267, N-(4-fluoro-3-{[1-(2,2,2-trifluoroethyl)piperidin-4-yl]oxy}phenyl)-3-methyl-5-{[6-(trifluoromethyl)pyrazin-2-yl]amino}-1,2-thiazole-4-carboxamide]: the IC50 is above 20 µM.

For `Cc1nsc(Nc2cncc(C(F)(F)F)n2)c1C(=O)Nc1ccc(F)c(OC2CCN(CC(F)F)CC2)c1` [Example 268, N-(3-{[1-(2,2-difluoroethyl)piperidin-4-yl]oxy}-4-fluorophenyl)-3-methyl-5-{[6-(trifluoromethyl)pyrazin-2-yl]amino}-1,2-thiazole-4-carboxamide], the IC50 worked out at 19 µM.

As to `Cc1nsc(Nc2cncc(C(F)(F)F)n2)c1C(=O)Nc1ccc(F)c(OC2CCN(CCF)CC2)c1` [Example 269, N-(4-fluoro-3-{[1-(2-fluoroethyl)piperidin-4-yl]oxy}phenyl)-3-methyl-5-{[6-(trifluoromethyl)pyrazin-2-yl]amino}-1,2-thiazole-4-carboxamide], the IC50 is above 20 µM.

`Cc1nsc(Nc2cnc(C(F)(F)F)cn2)c1C(=O)Nc1ccc(C(=O)NC2CN(CC(F)(F)F)C2)cc1` [Example 270, 3-methyl-N-(4-{[1-(2,2,2-trifluoroethyl)azetidin-3-yl]carbamoyl}phenyl)-5-{[5-(trifluoromethyl)pyrazin-2-yl]amino}-1,2-thiazole-4-carboxamide]: the IC50 was above 20 µM.

Take `Cc1nsc(Nc2cnc(C(F)(F)F)cn2)c1C(=O)Nc1ccc(C(=O)NC2CN(CC(F)F)C2)cc1` [Example 271, N-(4-{[1-(2,2-difluoroethyl)azetidin-3-yl]carbamoyl}phenyl)-3-methyl-5-{[5-(trifluoromethyl)pyrazin-2-yl]amino}-1,2-thiazole-4-carboxamide]: the IC50 was above 20 µM.

As to `Cc1nsc(Nc2cncc(C(F)(F)F)n2)c1C(=O)Nc1ccc(C(=O)N2CCN(CC(F)(F)F)CC2)cc1` [Example 272, 3-methyl-N-(4-{[4-(2,2,2-trifluoroethyl)piperazin-1-yl]carbonyl}phenyl)-5-{[6-(trifluoromethyl)pyrazin-2-yl]amino}-1,2-thiazole-4-carboxamide], the IC50 was above 20 µM.

`Cc1nsc(Nc2cncc(C(F)(F)F)n2)c1C(=O)Nc1ccc(C(=O)N2CCN(CC(F)F)CC2)cc1` [Example 273, N-(4-{[4-(2,2-difluoroethyl)piperazin-1-yl]carbonyl}phenyl)-3-methyl-5-{[6-(trifluoromethyl)pyrazin-2-yl]amino}-1,2-thiazole-4-carboxamide]: the IC50 is above 20 µM.

Regarding `Cc1nsc(Nc2cncc(C(F)(F)F)n2)c1C(=O)Nc1ccc(C(=O)N2CCN(CCF)CC2)cc1` [Example 274, N-(4-{[4-(2-fluoroethyl)piperazin-1-yl]carbonyl}phenyl)-3-methyl-5-{[6-(trifluoromethyl)pyrazin-2-yl]amino}-1,2-thiazole-4-carboxamide], the IC50 is above 20 µM.

In the case of `CCN1CCN(C(=O)c2ccc(NC(=O)c3c(C)nsc3Nc3cncc(C(F)(F)F)n3)cc2)CC1` [Example 275, N-{4-[(4-ethylpiperazin-1-yl)carbonyl]phenyl}-3-methyl-5-{[6-(trifluoromethyl)pyrazin-2-yl]amino}-1,2-thiazole-4-carboxamide], the IC50 is above 20 µM.

For the compound `Cc1nsc(Nc2cncc(C(F)(F)F)n2)c1C(=O)Nc1ccc(OCCO)nc1` [Example 276, N-[6-(2-hydroxyethoxy)pyridin-3-yl]-3-methyl-5-{[6-(trifluoromethyl)pyrazin-2-yl]amino}-1,2-thiazole-4-carboxamide], the IC50 is above 20 µM.

Take `Cc1nsc(Nc2cnc(C(F)(F)F)cn2)c1C(=O)Nc1ccc(OCCO)nc1` [Example 277, N-[6-(2-hydroxyethoxy)pyridin-3-yl]-3-methyl-5-{[5-(trifluoromethyl)pyrazin-2-yl]amino}-1,2-thiazole-4-carboxamide]: the IC50 is > 20 µM and 18 µM.

As for `Cc1nsc(Nc2cncc(C(F)(F)F)n2)c1C(=O)Nc1ccc(OCCCO)nc1` [Example 278, N-[6-(3-hydroxypropoxy)pyridin-3-yl]-3-methyl-5-{[6-(trifluoromethyl)pyrazin-2-yl]amino}-1,2-thiazole-4-carboxamide], the IC50 was above 20 µM.

In the case of `Cc1nsc(Nc2cnc(C(F)(F)F)cn2)c1C(=O)Nc1ccc(OCCCO)nc1` [Example 279, N-[6-(3-hydroxypropoxy)pyridin-3-yl]-3-methyl-5-{[5-(trifluoromethyl)pyrazin-2-yl]amino}-1,2-thiazole-4-carboxamide], the IC50 was > 20 µM and 19 µM.

As to `Cc1nsc(Nc2cncc(C(F)(F)F)n2)c1C(=O)Nc1ccc(C(=O)NC2CN(CC(F)(F)F)C2)cc1` [Example 280, 3-methyl-N-(4-{[1-(2,2,2-trifluoroethyl)azetidin-3-yl]carbamoyl}phenyl)-5-{[6-(trifluoromethyl)pyrazin-2-yl]amino}-1,2-thiazole-4-carboxamide], the IC50 was above 20 µM.

Consider `Cc1nsc(Nc2cnc3ccccc3n2)c1C(=O)Nc1cccc(NS(=O)(=O)C2CCN(CC(F)(F)F)CC2)c1` [Example 281, 3-methyl-5-(quinoxalin-2-ylamino)-N-[3-({[1-(2,2,2-trifluoroethyl)piperidin-4-yl]sulfonyl}amino)phenyl]-1,2-thiazole-4-carboxamide], for which the IC50 is above 20 µM.

For the compound `Cc1nsc(Nc2cnc3ccccc3n2)c1C(=O)Nc1cccc(NS(=O)(=O)C2CCN(CC(F)F)CC2)c1` [Example 282, N-[3-({[1-(2,2-difluoroethyl)piperidin-4-yl]sulfonyl}amino)phenyl]-3-methyl-5-(quinoxalin-2-ylamino)-1,2-thiazole-4-carboxamide], the IC50 was above 20 µM.

Regarding `Cc1nsc(Nc2cnc3ccccc3n2)c1C(=O)Nc1cccc(NS(=O)(=O)C2CCN(CCC(F)(F)F)CC2)c1` [Example 283, 3-methyl-5-(quinoxalin-2-ylamino)-N-[3-({[1-(3,3,3-trifluoropropyl)piperidin-4-yl]sulfonyl}amino)phenyl]-1,2-thiazole-4-carboxamide], the IC50 was above 20 µM.

Regarding `Cc1nsc(Nc2cnc(C(F)(F)F)cn2)c1C(=O)Nc1cccc(NC(=O)OC(C)(C)C)c1` [Example 284, 3-tert-butyl (3-{[(3-methyl-5-{[5-(trifluoromethyl)pyrazin-2-yl]amino}-1,2-thiazol-4-yl)carbonyl]amino}phenyl)carbamate], the IC50 was above 20 µM.

As to `Cc1nsc(Nc2cnc3ccccc3n2)c1C(=O)Nc1cccc(NS(=O)(=O)C2CN(CC(F)(F)F)C2)c1` [Example 285, 3-methyl-5-(quinoxalin-2-ylamino)-N-[3-({[1-(2,2,2-trifluoroethyl)azetidin-3-yl]sulfonyl}amino)phenyl]-1,2-thiazole-4-carboxamide], the IC50 is above 20 µM.

For the compound `Cc1nsc(Nc2cnc3ccccc3n2)c1C(=O)Nc1cccc(NS(=O)(=O)C2CN(CC(F)F)C2)c1` [Example 286, N-[3-({[1-(2,2-difluoroethyl)azetidin-3-yl]sulfonyl}amino)phenyl]-3-methyl-5-(quinoxalin-2-ylamino)-1,2-thiazole-4-carboxamide], the IC50 is above 20 µM.

`Cc1nsc(Nc2cnc3ccccc3n2)c1C(=O)Nc1cccc(NS(=O)(=O)C2CN(CCF)C2)c1` [Example 287, N-[3-({[1-(2-fluoroethyl)azetidin-3-yl]sulfonyl}amino)phenyl]-3-methyl-5-(quinoxalin-2-ylamino)-1,2-thiazole-4-carboxamide]: the IC50 is above 20 µM.

Take `Cc1nsc(Nc2cnc3ccccc3n2)c1C(=O)Nc1cccc(NS(=O)(=O)C2CN(CCC(F)(F)F)C2)c1` [Example 288, 3-methyl-5-(quinoxalin-2-ylamino)-N-[3-({[1-(3,3,3-trifluoropropyl)azetidin-3-yl]sulfonyl}amino)phenyl]-1,2-thiazole-4-carboxamide]: the IC50 was above 20 µM.

Turning to `Cc1nsc(Nc2cnc3ccccc3n2)c1C(=O)Nc1cccc(NS(=O)(=O)C2CCN(CC(F)(F)F)C2)c1` (stereo not drawn) [Example 289, 3-methyl-5-(quinoxalin-2-ylamino)-N-[3-({[1-(2,2,2-trifluoroethyl)pyrrolidin-3-yl]sulfonyl}amino)phenyl]-1,2-thiazole-4-carboxamide], the IC50 was above 20 µM.

As to `Cc1nsc(Nc2cnc3ccccc3n2)c1C(=O)Nc1cccc(NS(=O)(=O)C2CCN(C(=O)OC(C)(C)C)C2)c1` (stereo not drawn) [Example 290, tert-butyl 3-{[3-({[3-methyl-5-(quinoxalin-2-ylamino)-1,2-thiazol-4-yl]carbonyl}amino)phenyl]sulfamoyl} pyrrolidine-1-carboxylate], the IC50 is above 20 µM.

The values above are taken from patent publication US20170334899A1, “AMINO-SUBSTITUTED ISOTHIAZOLES” (Bayer Pharma Aktiengesellschaft, priority 2014, published 2017).
